Test results from BindingDB's records for doi:10.1016/j.bmc.2010.11.049 (Bryn Mawr College, 2011).

Experiment: Inhibition of HIV1 YU2 gp120 binding to CD4 expressing Cf2Th-CD4/CCR5 cells assessed as inhibition of viral infection after 48 hrs

SMILES	IC50 [µM]
CC1(C)O[C@@H](CN)[C@H](CNC(=O)C(=O)Nc2ccc(Cl)c(F)c2)O1 [N1-(((4S,5S)-5-(aminomethyl)-2,2-dimethyl-1,3-dioxolan-4-yl)methyl)-N2-(4-chloro-3-fluorophenyl)oxalamide]	76.6
CC(NC(=O)C(=O)Nc1ccc(Cl)c(F)c1)c1ccc(S(N)(=O)=O)cc1 (centres undefined) [N1-(4-chloro-3-fluorophenyl)-N2-(1-(4-sulfamoylphenyl)ethyl)oxalamide]	> 100
O=C(NCC1OCCc2ccccc21)C(=O)Nc1ccc(Br)cc1 (centres undefined) [N1-(4-bromophenyl)-N2-(isochroman-1-ylmethyl)oxalamide]	> 100
C[C@@H]1CCC[C@H](C)N1CCNC(=O)C(=O)Nc1ccc(Cl)c(F)c1 [N1-(4-chloro-3-fluorophenyl)-N2-(2-((2S,6R)-2,6-dimethylpiperidin-1-yl)ethyl)oxalamide]	75.5
Nc1ccc(C(=O)CC(=O)Nc2ccc(Cl)cc2)cc1 [3-(4-aminophenyl)-N-(4-chlorophenyl)-3-oxopropanamide]	> 100
O=C(Nc1ccc(Cl)c(F)c1)C(=O)NC1CCN(C(=O)c2ccccc2)CC1 [N1-(1-benzoylpiperidin-4-yl)-N2-(4-chloro-3-fluorophenyl)oxalamide]	> 100
CC1(C)CC(NC(=O)C(=O)Nc2ccc(-n3cc(CCCCCO)nn3)cc2)CC(C)(C)N1 [N1-(4-(4-(5-hydroxypentyl)-1H-1,2,3-triazol-1-yl)phenyl)-N2-(2,2,6,6-tetramethylpiperidin-4-yl)oxalamide]	> 100
CC1CCCN(CCC(=O)Nc2ccc(Br)cc2)C1 (centres undefined) [N-(4-bromophenyl)-3-(3-methylpiperidin-1-yl)propanamide]	> 100
CN(C(=O)C(=O)NC1CC(C)(C)NC(C)(C)C1)c1ccc(Cl)cc1 [N1-(4-chlorophenyl)-N1-methyl-N2-(2,2,6,6-tetramethylpiperidin-4-yl)oxalamide]	> 100
N=c1oc2cc(O)ccc2cc1C(=O)Nc1ccc(Cl)cc1 [N-(4-chlorophenyl)-7-hydroxy-2-imino-2H-chromene-3-carboxamide]	> 100
Cc1ccc(C(C)C)c(OCC(=O)NNC(=O)Nc2ccc(Cl)cc2)c1 [N-(4-chlorophenyl)-2-(2-(2-isopropyl-5-methylphenoxy)acetyl)hydrazinecarboxamide]	> 100
CC1(C)CC(NC(=O)CC(=O)Nc2ccc(Br)cc2)CC(C)(C)N1 [N1-(4-bromophenyl)-N3-(2,2,6,6-tetramethylpiperidin-4-yl)malonamide]	> 100
CC1Sc2cc(C(=O)NC3CC(C)(C)NC(C)(C)C3)ccc2NC1=O (centres undefined) [2,2,6,6-tetramethyl-4-(2-methyl-3-oxo-3,4-dihydro-2H-benzo[b][1,4]thiazine-7-carboxamido)piperidinium]	> 100
CN1CCCC(ONC(=O)C(=O)Nc2ccc(Cl)c(F)c2)C1 (centres undefined) [N1-(4-chloro-3-fluorophenyl)-N2-(1-methylpiperidin-3-yloxy)oxalamide]	> 100
CCN1CCCC1CNC(=O)C(=O)Nc1ccc(Cl)cc1 (centres undefined) [N1-(4-chlorophenyl)-N2-((1-ethylpyrrolidin-2-yl)methyl)oxalamide]	58.6
O=C(NCC1COc2ccccc2O1)C(=O)Nc1ccc(Br)cc1 (centres undefined) [N1-(4-bromophenyl)-N2-((2,3-dihydrobenzo[b][1,4]dioxin-2-yl)methyl)oxalamide]	> 100
CC1(C)CC(CNC(=O)C(=O)Nc2ccc(Cl)c(F)c2)CC(C)(C)N1 [N1-(4-chloro-3-fluorophenyl)-N2-((2,2,6,6-tetramethylpiperidin-4-yl)methyl)oxalamide]	33
COc1cccc(N[C@@H](C)C(=O)Nc2ccc(Br)cc2)c1 [(S)-N-(4-bromophenyl)-2-(3-methoxyphenylamino)propanamide]	> 100
CNC(=O)c1ccc(CNC(=O)C(=O)Nc2ccc(Cl)c(F)c2)cc1 [N1-(4-chloro-3-fluorophenyl)-N2-(4-(methylcarbamoyl)benzyl)oxalamide]	> 100
O=C(Nc1ccc(Cl)c(F)c1)C(=O)Nc1cnn2c1NCCC2 [N1-(4-chloro-3-fluorophenyl)-N2-(4,5,6,7-tetrahydropyrazolo[1,5-a]pyrimidin-3-yl)oxalamide]	> 100
O=C(CN1CCCCCC1)Nc1ccc(Br)cc1 [2-(azepan-1-yl)-N-(4-bromophenyl)acetamide]	> 100
CC1(C)CC(NC(=O)C(=O)Nc2ccc(-n3cc(CCc4ccccc4)nn3)cc2)CC(C)(C)N1 [N1-(4-(4-phenethyl-1H-1,2,3-triazol-1-yl)phenyl)-N2-(2,2,6,6-tetramethylpiperidin-4-yl)oxalamide]	> 100
CC1(C)CC(NC(=O)C(=O)Nc2ccc(N=[N+]=[N-])cc2)CC(C)(C)N1 [N1-(4-azidophenyl)-N2-(2,2,6,6-tetramethylpiperidin-4-yl)oxalamide]	> 100
CN1CCCC(NC(=O)C(=O)Nc2ccc(Cl)c(F)c2)C1 (centres undefined) [N1-(4-chloro-3-fluorophenyl)-N2-(1-methylpiperidin-3-yl)oxalamide]	> 100
C[C@@H](Sc1nc(N)cc(=O)[nH]1)C(=O)Nc1ccc(Cl)cc1 [(R)-2-(6-amino-4-oxo-1,4-dihydropyrimidin-2-ylthio)-N-(4-chlorophenyl)propanamide]	> 100

SMILES	IC50 [µM]
CN(C(=O)C(=O)Nc1ccc(Cl)c(F)c1)C1CC(C)(C)NC(C)(C)C1 [N1-(4-chloro-3-fluorophenyl)-N2-methyl-N2-(2,2,6,6-tetramethylpiperidin-4-yl)oxalamide]	> 100
O=C(NCC1CCCN(CCO)C1)C(=O)Nc1ccc(Cl)c(F)c1 (centres undefined) [N1-(4-chloro-3-fluorophenyl)-N2-((1-(2-hydroxyethyl)piperidin-3-yl)methyl)oxalamide]	27.6
CC1(C)CC(NC(=O)C(=O)Nc2ccc(Cl)c(F)c2)CC(C)(C)O1 [N1-(4-chloro-3-fluorophenyl)-N2-(2,2,6,6-tetramethyltetrahydro-2H-pyran-4-yl)oxalamide]	> 100
CC(C)N1CCCCC1CCNC(=O)C(=O)Nc1ccc(Cl)c(F)c1 (centres undefined) [N1-(4-chloro-3-fluorophenyl)-N2-(2-(1-isopropylpiperidin-2-yl)ethyl)oxalamide]	27
CC(C)(C)c1cc(CNC(=O)C(=O)Nc2ccc(Cl)c(F)c2)[nH]n1 [N1-((5-tert-butyl-1H-pyrazol-3-yl)methyl)-N2-(4-chloro-3-fluorophenyl)oxalamide]	> 100
CC(C)(CNC(=O)C(=O)Nc1ccc(Cl)c(F)c1)N1CCOCC1 [N1-(4-chloro-3-fluorophenyl)-N2-(2-methyl-2-morpholinopropyl)oxalamide]	> 100
O=C(Nc1ccc(Cl)cc1)Nc1ncnc2nc[nH]c12 [1-(4-chlorophenyl)-3-(9H-purin-6-yl)urea]	> 100
O=C(NCC(c1ccc(Cl)cc1)N1CCCC1)C(=O)Nc1ccc(Cl)c(F)c1 (centres undefined) [N1-(4-chloro-3-fluorophenyl)-N2-(2-(4-chlorophenyl)-2-(pyrrolidin-1-yl)ethyl)oxalamide]	61.4
O=C(CSCc1cc(=O)[nH][nH]1)Nc1ccc(Br)cc1 [N-(4-bromophenyl)-2-((5-hydroxy-1H-pyrazol-3-yl)methylthio)acetamide]	> 100
CC1(C)CC(NC(=O)C(=O)NCCc2ccc(Cl)cc2)CC(C)(C)N1 [4-(2-(4-chlorophenethylamino)-2-oxoacetamido)-2,2,6,6-tetramethylpiperidinium]	> 100
O=C(NCC1CCNCC1)C(=O)Nc1ccc(Cl)c(F)c1 [N1-(4-chloro-3-fluorophenyl)-N2-(piperidin-4-ylmethyl)oxalamide]	> 100
O=C(NCC(c1ccco1)N1CCCC1)C(=O)Nc1ccc(Cl)c(F)c1 (centres undefined) [N1-(4-chloro-3-fluorophenyl)-N2-(2-(furan-2-yl)-2-(pyrrolidin-1-yl)ethyl)oxalamide]	> 100
COc1cccc(NC(=O)C(=O)Nc2ccc(Cl)cc2)c1 [N1-(4-chlorophenyl)-N2-(3-methoxyphenyl)oxalamide]	> 100
CC1(C)CC(NC(=O)C(=O)Nc2ccc(Cl)cc2OCc2ccccc2)CC(C)(C)N1 [N1-(2-(benzyloxy)-4-chlorophenyl)-N2-(2,2,6,6-tetramethylpiperidin-4-yl)oxalamide]	> 100
CC1(C)CC(NC(=O)C(=O)Nc2c[nH]c3ncccc23)CC(C)(C)N1 [N1-(1H-pyrrolo[2,3-b]pyridin-3-yl)-N2-(2,2,6,6-tetramethylpiperidin-4-yl)oxalamide]	> 100
CCn1ncnc1C(C)NC(=O)C(=O)Nc1ccc(Cl)c(F)c1 (centres undefined) [N1-(4-chloro-3-fluorophenyl)-N2-(1-(1-ethyl-1H-1,2,4-triazol-5-yl)ethyl)oxalamide]	> 100
Cc1cccc(-c2cc(C(=O)Nc3ccc(Cl)cc3)[nH]n2)c1O [N-(4-chlorophenyl)-5-(2-hydroxy-3-methylphenyl)-1H-pyrazole-3-carboxamide]	> 100
O=C(Nc1ccc(Cl)c(F)c1)C(=O)NC1CCNC2(CCC2)C1 (centres undefined) [N1-(4-chloro-3-fluorophenyl)-N2-(5-azaspiro[3.5]nonan-8-yl)oxalamide]	38.5
CC1(C)CC(NC(=O)C(=O)Nc2ccc(-n3cc(-c4ccccc4)nn3)cc2)CC(C)(C)N1 [N1-(4-(4-phenyl-1H-1,2,3-triazol-1-yl)phenyl)-N2-(2,2,6,6-tetramethylpiperidin-4-yl)oxalamide]	> 100
O=C(Nc1ccc(Cl)cc1)C(=O)c1c[nH]c2ccccc12 [N-(4-chlorophenyl)-2-(1H-indol-3-yl)-2-oxoacetamide]	> 100
CCNC(=S)N1CCN(CC(=O)Nc2ccc(Br)cc2)CC1 [4-(2-(4-bromophenylamino)-2-oxoethyl)-N-ethylpiperazine-1-carbimidothioic acid]	> 100
Cn1ccnc1C(O)(CCNC(=O)C(=O)Nc1ccc(Cl)c(F)c1)C(F)(F)F (centres undefined) [N1-(4-chloro-3-fluorophenyl)-N2-(4,4,4-trifluoro-3-hydroxy-3-(1-methyl-1H-imidazol-2-yl)butyl)oxalamide]	> 100
O=C(Nc1ccc(Cl)c(F)c1)C(=O)N[C@H]1CCN(Cc2ccccc2)C1 [(S)-N1-(1-benzylpyrrolidin-3-yl)-N2-(4-chloro-3-fluorophenyl)oxalamide]	> 100
Cc1nn(C)cc1CN(C)CC(=O)Nc1ccc(Br)cc1 [N-(4-bromophenyl)-2-(((1,3-dimethyl-1H-pyrazol-4-yl)methyl)(methyl)amino)acetamide]	> 100
